From patent US11400136B2, “Methods and compositions for treating a microbial infection” (priority 2017, dated 2022) come the findings set out here.

For data set [1], the system named is S. pyogenes M1. It counts as in vivo, mouse.
In data set [2] the test system is S. pyogenes M1. The format is cell-based, mouse.
For data set [3], the system named is S. pyogenes M1. It counts as cell-based, Streptococcus pyogenes. To be noted: 1 h.
Data set [4] has as its system S. pyogenes M1. It counts as in vivo, mouse. This is another data set of the same source.
In data set [5] the test system is skin punch biopsies. Kind of data set: CGRP release assay from skin explants. Particulars: RTX-treated vs vehicle; 7 h. The format is in vivo, mouse. How it is done:
CGRP release assay from skin explants. Skin punch biopsies (12 mm) were collected from the uninfected or infected flank skin samples of euthanized mice, and rapidly transferred to 24-well plates containing 1 mL of DMEM. Explants were incubated at 32° C. with gentle shaking (150 rpm) for 30 min.

Data set [6] deals with TRPV1-positive nociceptors. As to the kind of experiment: Ablation of TRPV1+ nociceptors, quantification of DRG/vagal ganglia neurons. Particulars: mouse, in vivo.
The subject of data set [7] is S. aureus USA300. Kind of data set: S. aureus (MRSA) lung infection / lethal pneumonia. The format is in vivo, mouse.
Data set [8] has as its system Streptococcus pneumoniae strain WU-2. Kind of data set: S. pneumoniae lung infection. The format is in vivo, mouse. Particulars: RTX vs vehicle; P=0.13.
The subject of data set [9] is Klebsiella pneumoniae. Kind of data set: K. pneumoniae lung infection. It counts as in vivo, mouse. To be noted: RTX vs vehicle.
The subject of data set [10] is Pseudomonas aeruginosa strain PA01V. As to the kind of experiment: P. aeruginosa lung infection. The format is in vivo, mouse. Particulars: RTX vs vehicle.
Data set [11] in a line: Heat sensitivity (hot plate and tail-flick assays). Particulars: RTX vs vehicle. The format is in vivo, mouse. The method, then: Behavior tests. For behavioral assays, observers were blinded to treatment group and genotype. To measure heat sensitivity, mice were placed on a hot plate set at 52° C. (IITC Life Science). Latency to hindpaw lifting/licking/flinching was recorded, and stopped at a maximum of 60 seconds. For tail-flick assay, mice were kept vertically in a relaxed fashion with their tail immersed in a temperature-controlled water bath maintained at 52° C. The latency to a tail flick was recorded, with maximum of 60 seconds.

The subject of data set [12] is neutrophils. As to the kind of experiment: Pulmonary intravital microscopy of neutrophils. It counts as in vivo, mouse. To be noted: RTX. How it is done: Pulmonary intravital microscopy. […]. To visualize neutrophils and endothelium, 3.5 μg Alexa Fluor 594 conjugated anti-Ly6G antibody (clone 1A8, BioLegend) and 5 μg Alexa Fluor 647 conjugated anti-CD31 antibody (clone MEC13.3, BioLegend) were injected intravenously. Mice were placed on a heating pad maintained at 37° C. and connected to mechanical ventilation (Harvard Apparatus) after a tracheostomy is performed. Mice were kept in a right lateral decubitus position and their left lung was exposed after a thoracotomy and rib resection. A portion of the lung was immobilized via a gentle vacuum chamber with a glass slide fitted on top. A resonant-scanner confocal microscope (Leica SP8) equipped with a white light laser and three HyD spectral detectors and a 25×/0.9 water objective lens were used for intravital microscopy. Images were acquired every 10 s for a total of 10 min, three to five fields of view were observed. All videos and images were processed and analyzed using Leica software and Volocity software. For neutrophil behavior analysis, tethering was defined as rapid movement with blood flow and stop for less than 30 s. Adhesion was defined as neutrophils that remained stationary for 30 s or longer. Crawling was defined as polarized cells that maintained continuous contact with the endothelium while changing physical location for at least 30 s. Random neutrophils were tracked manually in 10-min videos by using Volocity software.

Data set [13] is classed as in vivo, mouse. Particulars: RTX-treated vs vehicle; steady state. The method, then:
Vital sign measurements. Heart rate, oxygen saturation and perfusion were measured under isoflurane anesthesia by Pulse Oximetry using the Kent Scientific PhysioSuite (Kent Scientific Corporation). For accuracy, measurements were performed three independent times on different days for the same mice, and values represent the average of three measurements. Pulse Oximetry could not be used on MRSA infected mice because they could not survive isoflurane anesthesia, and thus the measurements were only performed at steady state. Respiratory rates were determined by manually recording number of breaths per minute and averaged over three measurements. Core body temperature was measured using a rectal thermal probe (Bioseb).

Entries after “also recorded” stand apart in the source; their conditions may differ. Like-named read-outs stand apart in the source and are kept apart here.

Turning to `NCCCC[C@H](NC(=O)[C@@H](Cc1cc(Br)c(O)c(Br)c1)NC(=O)N1CCC(N2Cc3ccccc3NC2=O)CC1)C(=O)N1CCN(c2ccncc2)CC1` [BIBN4096], in data set [1] (mouse, in vivo, 30 mg/kg), the abscess formation result is on record as “significantly decreases abscess formation; also recorded: reduced abscesses”. Also, the dermonecrotic lesion size entry in data set [1] (mouse, in vivo, ip, 30 mg/kg) is given as “significantly smaller lesion formation; also recorded: smaller dermonecrotic lesions”. Besides, the “neutrophil (CD11b+Ly6G+) recruitment to infected area” value in data set [1] (treated 2 h after infection, 1 day after injection) is listed as “increased the recruitment of neutrophils”. Besides, the “bacterial load recovery, flank skin and spleen” value in data set [1] (treated 2 h after infection, 9 days after injection of bacteria) is “decreases flank skin and spleen bacterial burdens; also recorded: increased bacterial clearance in the skin”. Moreover, the “neutrophil killing of S. pyogenes suppressed by DRG neurons” value in [2] is “enhances neutrophil killing of bacteria; also recorded: prevented the suppressive effects”. Besides, the “direct effects on S. pyogenes growth or viability” value in data set [3] is recorded as “did not have direct effects”.
For the compound `C=C(C)[C@]12C[C@@H](C)[C@@]34O[C@](Cc5ccccc5)(O[C@@H]1[C@@H]3C=C(COC(=O)Cc1ccc(O)c(OC)c1)C[C@]1(O)C(=O)C(C)=C[C@@H]41)O2` [RTX, Resiniferatoxin], the dermonecrosis entry in [1] (RTX 30, 70, 100 μg/kg s.c., infection 4 weeks later) was “significantly less dermonecrosis”. In data set [1] (RTX-treated vs vehicle), the “S. pyogenes in lesions, quantitative cultures” value was “log-fold reductions of S. pyogenes”; the body weight regain result is on record as “regained body weight faster”; the skin abscess size entry is “resolved faster”. Moreover, in [1] (RTX-treated vs vehicle, 1 day), the “monocytes, other myeloid cells, CD11b-CD45+ leukocytes (FACS)” value is given as “not detected”. In addition, the skin histopathology result in [1] (RTX-treated, day 3) was “containment of the bacterial infection within a circumscribed abscess containing polymorphonuclear leukocytes”. For the same compound, in [1] (RTX-treated, day 9), the “S. pyogenes cultured from spleens” value is “did not yield detectable bacteria”. In [4] (RTX-treated), the heat hyperalgesia result is “abrogated”, the mechanical hyperalgesia entry is given as “abrogated” and the spontaneous pain behaviors result is listed as “abrogated”. Also, the “CGRP release in infected tissues” value in [5] is recorded as “lower CGRP release in infected tissues”. In data set [6], the “TRPV1+ and CGRP+ neurons in DRG (and vagal/nodose ganglia)” value was “significant loss of CGRP+ nociceptive neurons; also recorded: led to loss of TRPV1+ and CGRP+ neurons; also recorded: loss of TRPV1+ and CGRP+ neurons in DRG and VG”. For the same compound, the “mice succumbed to / died from infection” value in data set [7] (RTX-treated mice given GR1 or control IgG) is listed as 0%. In addition, the “lung bacterial burdens / clearance” value in data set [7] (RTX-treated vs vehicle, 12 h) was “significantly improved; also recorded: reduced lung bacterial burdens”. In addition, the core body temperature result in data set [7] (RTX-treated vs vehicle, lethal MRSA) is “improved maintenance of core-body temperature”. Moreover, in data set [7] (RTX-treated vs vehicle, lethal MRSA intra-tracheal), the survival result was “significantly improved survival; also recorded: the majority of RTX-treated mice survived”. Further, the “BALF total protein, TNF-α, IL-6 and CXCL-1 induction” value in data set [7] (RTX, 6 h) was “faster kinetics in the induction”. The “CD11b+Ly6G+ lung neutrophil recruitment” value in data set [7] (RTX, 6 h and 12 h post-infection) is recorded as “striking increase”. Also, the “gram-positive bacterial colonies in lung (Brown and Brenn)” value in data set [7] (RTX, 12 h and 24 h) is “few bacterial colonies”. Further, the “lung cellular immune influx (H&E)” value in data set [7] (RTX, 12 h and 24 h post-infection) is listed as “increased cellular immune influx”. In data set [7] (RTX, 12 h post-infection), the “BALF TNF-α, IL-6 and CXCL-1 levels” value is “markedly reduced”; the “CGRP levels in BALF” value was “significantly reduced”. Moreover, the “bacterial load recovery, sub-lethal dose” value in data set [7] (RTX, S. aureus 2-4×10^7 CFU) is recorded as “enhanced protection”. Further, the survival result in [8] is reported as “modest but non-significant protective effect”. The survival result in data set [9] is reported as “did not impact death”. In addition, the survival entry in [10] is “did not impact death”. In addition, in [11], the “latency to noxious heat” value is given as “increased latency to noxious heat”. In addition, in data set [12], the neutrophil crawling distances result was “significantly increased crawling distances” and the neutrophil vascular crawling entry is listed as “a significant proportion of neutrophils demonstrated vascular crawling”. In [12] (4 h post-infection GFP-S. aureus), the “neutrophils recruited to pulmonary capillaries” value is on record as “significantly more neutrophils”. The “oxygen saturation, heart rate, perfusion, respiratory rates” value in data set [13] is “did not differ”.
Regarding `CC(C)Cc1ccc(C(C)C(=O)O)cc1` (centres unmarked) [Ibuprofen], in [4] (ibuprofen 50 mg/kg), the heat hyperalgesia result was “had no effect” and the mechanical hyperalgesia entry was “had no effect”.
“CGRP8-37 (VTHRLAGLLSRSGGVVKNNFVPTNVGSKAF; Calcitonin gene-related peptide 1; UniProt P06881 90-119, looked up, fragment)”: the “neutrophil killing of S. pyogenes suppressed by DRG neurons” value in [2] is reported as “enhances neutrophil killing of bacteria; also recorded: prevented the suppressive effects”. Also, the “direct effects on S. pyogenes growth or viability” value in data set [3] is “did not have direct effects”. Besides, the survival entry in [7] (CGRP8-37 800 ng i.p. at -24, -2, 12, 24, 36, 48 h) is on record as “improved survival”; in data set [7] (CGRP8-37 7.5 μg i.p. at 4, 16, 24 h after infection), “significantly improved survival”; in data set [7] (CGRP8-37 i.p. 12 hours prior and 12 hours after infection, 10^7 CFU), “significantly improved survival”. The “core body temperature maintenance” value in [7] (CGRP8-37 800 ng i.p. before and after infection) was “improved”. Also, the core body temperature result in data set [7] (CGRP8-37 7.5 μg i.p. after infection) is given as “significantly improved”. Also, the core-body temperature result in [7] (CGRP8-37 i.p. 12 hours prior and 12 hours after infection) was “maintenance of core-body temperature”.
